The results in this text go back to ChEMBL document CHEMBL4219051, “Cyclin-Dependent Kinase 8: A New Hope in Targeted Cancer Therapy?” (J Med Chem, 2018).

As a reminder, the inhibition is the share of the control response that was lost under treatment. A low value points to a response near the control. By IC50 is commonly meant the midpoint of a concentration-inhibition curve. What is called GI50 is the concentration giving 50% growth inhibition. Read a high GI50 as lower sensitivity of the cells. As a reminder, the EC50 is the concentration that produces a half-maximal response.

Assay [1] addresses Receptor-type tyrosine-protein kinase FLT3 (Homo sapiens) (UniProt P36888). The assay is described as follows: Inhibition of FLT3 (unknown origin) at 1 uM relative to control.
Assay [2] relates to HCT-116. Briefly: cells. The note with it: Homo sapiens.
The subject of assay [3] is HCT-116. Briefly: Growth inhibition of human HCT116 cells after 7 days by CellTiter-Glo assay. In kind it is functional. The note with it: HCT-116, 168 h. On the technique in general: In ATP-based viability assays light output follows the ATP content of the culture.
Assay [4] relates to MOLM-14. The assay is described as follows: Growth inhibition of human MOLM14 cells after 10 days by CellTiter-Glo assay. In kind it is functional. The note with it: MOLM-14, 240 h.
Assay [5] concerns the target Rho-associated protein kinase 2 (Homo sapiens, UniProt O75116). The assay is described as follows: Inhibition of ROCK2 (unknown origin).
Assay [6] in a line: Growth inhibition of human UKE1 cells after 10 days by CellTiter-Glo assay. In kind it is functional. The note with it: UKE1, 240 h.
Assay [7] has as its system SET-2. The assay is described as follows: Antitumor activity against human SET2 cells xenografted in SCID Beige mouse assessed as tumor growth inhibition at 0.16 mg/kg, ip qd measured on day 33 relative to control. The format is functional. To be noted: SET-2, ip, 792 h, read-out: TGI. Background: Xenograft models place foreign cells or tissue in a host animal.
Assay [8] is described as follows: Growth inhibition of human SKNO1 cells after 10 days by CellTiter-Glo assay. In kind it is functional. The note with it: SKNO-1, 240 h.
Assay [9] addresses Rho-associated protein kinase 1 (Homo sapiens, UniProt Q13464). The assay is described as follows: Inhibition of ROCK1 (unknown origin).
The target in assay [10] is T1, Cyclin-dependent kinase 19 (Homo sapiens, UniProt Q9BWU1). The assay is described as follows: Inhibition of CDK19 (unknown origin) in presence of [gamma33P]ATP by radiometric method.
The test system of assay [11] is SET-2. Briefly: Growth inhibition of human SET2 cells after 10 days by CellTiter-Glo assay. In kind it is functional. The note with it: SET-2, 240 h.
For assay [12], the system named is MEG-01. The assay is described as follows: Growth inhibition of human MEG01 cells after 10 days by CellTiter-Glo assay. In kind it is functional. To be noted: MEG-01, 240 h.
For assay [13], the system named is MV4-11. Briefly: Growth inhibition of human MV4-11 cells after 10 days by CellTiter-Glo assay. The note with it: MV4-11, 240 h. The format is functional.
Assay [14] deals with TF-1. Briefly: Growth inhibition of human TF1 cells after 10 days by CellTiter-Glo assay. In kind it is functional. To be noted: TF-1, 240 h.
Assay [15] relates to RS4-11. The assay is described as follows: Growth inhibition of human RS4:11 cells after 10 days by CellTiter-Glo assay. The format is functional. To be noted: RS4-11, 240 h.
Assay [16] has as its target T1, Cyclin-dependent kinase 19. Briefly: Inhibition of CDK19 (unknown origin).
Assay [17] addresses Cyclin-dependent kinase 8/Cyclin-C (Mus musculus, UniProt Q8R3L8). The assay is described as follows: Inhibition of CDK8/Cyclin-C in R848-stimulated mouse BMDC assessed as upregulation of IL-10 level. In kind it is cell-based.
The target in assay [18] is Cyclin-dependent kinase 8 (Homo sapiens, UniProt P49336). Briefly: Inhibition of CDK8 (unknown origin).
Assay [19] deals with Mitogen-activated protein kinase kinase kinase 19 (Homo sapiens) (UniProt Q56UN5). Briefly: Inhibition of YSK4 (unknown origin) at 2 uM relative to control.
Assay [20] addresses Mitogen-activated protein kinase kinase kinase kinase 2 (Homo sapiens) (UniProt Q12851). Briefly: Inhibition of MAP4K2 (unknown origin) at 2 uM relative to control.
The test system of assay [21] is MV4-11. Briefly: Growth inhibition of human MV4-11 cells by alamar blue assay. In kind it is functional. For orientation: Resazurin is reduced to fluorescent resorufin, in cell work by metabolically active cells.
Assay [22] in a line: Growth inhibition of human SKNO1 cells by alamar blue assay. To be noted: SKNO-1. In kind it is functional.
Assay [23] relates to OCI-AML-3. Briefly: Growth inhibition of human OCI-AML3 cells by alamar blue assay. In kind it is functional.
For assay [24], the target named is Cyclin-C/Cyclin-dependent kinase 19 (Homo sapiens, UniProt Q9BWU1). The assay is described as follows: Inhibition of CDK19/Cyclin-C (unknown origin) in presence of [gamma33P]ATP by radiometric method. In kind it is protein-complex assay.
Assay [25] has as its target T2, CDK8/Cyclin C (Homo sapiens, UniProt P49336). The assay is described as follows: Inhibition of CDK8/Cyclin-C (unknown origin) in presence of [gamma33P]ATP by radiometric method. In kind it is protein-complex assay.
For assay [26], the system named is KG-1. Briefly: Growth inhibition of human KG1 cells by alamar blue assay. In kind it is functional.
Assay [27] deals with HL-60. Briefly: Growth inhibition of human HL60 cells by alamar blue assay. In kind it is functional.
A short description of assay [28]: Growth inhibition of human MOLM16 cells by alamar blue assay. In kind it is functional.
Assay [29] relates to OCI-AML2. Briefly: Growth inhibition of human OCI-AML2 cells by alamar blue assay. In kind it is functional.
The nature of assay [30]: Growth inhibition of human MOLM6 cells by alamar blue assay. In kind it is functional.
Assay [31] concerns the target T2, CDK8/Cyclin C. Briefly: Inhibition of CDK8/CCNC (unknown origin) using RBER-IRStide as substrate in presence of [gamma33P]ATP by radiometric method. In kind it is protein-complex assay.

T1 sequence (Q9BWU1 whole entry): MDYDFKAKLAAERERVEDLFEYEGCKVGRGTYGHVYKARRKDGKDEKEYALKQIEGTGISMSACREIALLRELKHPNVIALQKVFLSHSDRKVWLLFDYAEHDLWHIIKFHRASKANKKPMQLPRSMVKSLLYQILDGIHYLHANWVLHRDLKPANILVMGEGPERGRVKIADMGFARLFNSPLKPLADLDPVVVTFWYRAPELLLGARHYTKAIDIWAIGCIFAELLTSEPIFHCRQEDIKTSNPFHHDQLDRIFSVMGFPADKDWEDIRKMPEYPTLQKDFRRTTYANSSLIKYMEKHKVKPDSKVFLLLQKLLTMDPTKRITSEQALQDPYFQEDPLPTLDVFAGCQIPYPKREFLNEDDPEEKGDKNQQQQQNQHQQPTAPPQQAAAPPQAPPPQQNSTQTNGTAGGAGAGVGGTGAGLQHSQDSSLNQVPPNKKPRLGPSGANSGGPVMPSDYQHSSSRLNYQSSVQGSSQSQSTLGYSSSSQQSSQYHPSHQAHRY
T2 sequence (P49336 whole entry): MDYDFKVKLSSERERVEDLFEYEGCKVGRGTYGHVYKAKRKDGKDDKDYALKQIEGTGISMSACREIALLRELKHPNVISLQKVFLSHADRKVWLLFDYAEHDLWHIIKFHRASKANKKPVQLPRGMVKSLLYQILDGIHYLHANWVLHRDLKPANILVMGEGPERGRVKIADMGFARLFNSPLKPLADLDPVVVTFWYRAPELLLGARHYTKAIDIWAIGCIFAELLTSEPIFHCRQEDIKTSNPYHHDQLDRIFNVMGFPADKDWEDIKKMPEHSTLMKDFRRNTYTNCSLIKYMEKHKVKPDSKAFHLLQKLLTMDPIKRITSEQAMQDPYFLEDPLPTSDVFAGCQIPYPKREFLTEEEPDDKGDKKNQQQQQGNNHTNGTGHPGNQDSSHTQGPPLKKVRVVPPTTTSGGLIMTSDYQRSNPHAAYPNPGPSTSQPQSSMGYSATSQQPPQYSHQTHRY
T2 sequence (P24863 whole entry, further chain): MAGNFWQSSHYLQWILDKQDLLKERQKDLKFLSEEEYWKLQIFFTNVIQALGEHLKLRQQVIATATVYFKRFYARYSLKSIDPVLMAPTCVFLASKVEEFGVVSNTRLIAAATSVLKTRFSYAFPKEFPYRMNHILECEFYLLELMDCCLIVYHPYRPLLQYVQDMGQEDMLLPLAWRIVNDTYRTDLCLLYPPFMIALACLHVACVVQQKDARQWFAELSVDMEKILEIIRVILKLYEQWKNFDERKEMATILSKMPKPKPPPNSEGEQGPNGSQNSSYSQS
Rho-associated protein kinase 1, sequence (Q13464 whole entry): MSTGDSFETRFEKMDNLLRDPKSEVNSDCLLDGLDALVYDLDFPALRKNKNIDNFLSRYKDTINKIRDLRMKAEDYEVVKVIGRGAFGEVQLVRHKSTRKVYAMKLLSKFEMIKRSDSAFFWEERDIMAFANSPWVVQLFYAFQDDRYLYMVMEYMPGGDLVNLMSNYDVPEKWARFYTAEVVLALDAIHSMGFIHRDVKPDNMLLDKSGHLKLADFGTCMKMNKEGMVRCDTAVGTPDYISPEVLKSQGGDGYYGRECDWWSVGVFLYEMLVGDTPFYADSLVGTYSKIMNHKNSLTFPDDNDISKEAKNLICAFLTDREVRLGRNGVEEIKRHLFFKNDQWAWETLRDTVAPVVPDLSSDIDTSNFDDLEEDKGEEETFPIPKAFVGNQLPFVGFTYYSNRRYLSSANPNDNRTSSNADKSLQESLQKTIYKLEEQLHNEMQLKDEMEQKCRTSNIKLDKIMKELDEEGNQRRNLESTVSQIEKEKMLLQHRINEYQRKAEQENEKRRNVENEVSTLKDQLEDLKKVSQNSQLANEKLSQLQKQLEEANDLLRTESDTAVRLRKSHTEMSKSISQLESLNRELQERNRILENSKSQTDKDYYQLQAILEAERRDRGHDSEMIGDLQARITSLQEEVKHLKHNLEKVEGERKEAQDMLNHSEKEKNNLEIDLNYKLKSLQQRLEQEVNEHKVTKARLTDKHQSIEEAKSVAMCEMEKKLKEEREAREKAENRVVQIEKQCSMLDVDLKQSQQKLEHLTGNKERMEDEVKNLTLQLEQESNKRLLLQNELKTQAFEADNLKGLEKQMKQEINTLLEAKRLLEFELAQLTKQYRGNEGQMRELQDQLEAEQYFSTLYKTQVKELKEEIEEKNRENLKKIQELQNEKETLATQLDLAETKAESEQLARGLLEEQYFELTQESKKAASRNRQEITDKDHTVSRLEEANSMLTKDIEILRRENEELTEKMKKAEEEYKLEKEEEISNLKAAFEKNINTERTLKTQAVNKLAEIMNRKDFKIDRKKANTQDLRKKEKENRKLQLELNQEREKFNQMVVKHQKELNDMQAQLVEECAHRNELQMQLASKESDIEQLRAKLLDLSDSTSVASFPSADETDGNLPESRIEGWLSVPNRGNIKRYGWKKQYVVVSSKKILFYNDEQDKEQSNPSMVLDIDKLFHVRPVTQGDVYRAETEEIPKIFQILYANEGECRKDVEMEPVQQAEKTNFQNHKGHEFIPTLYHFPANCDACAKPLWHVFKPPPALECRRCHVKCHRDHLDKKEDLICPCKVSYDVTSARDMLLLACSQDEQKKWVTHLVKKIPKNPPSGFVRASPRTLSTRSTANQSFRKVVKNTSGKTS
Mitogen-activated protein kinase kinase kinase kinase 2 (Homo sapiens), sequence (Q12851 whole entry): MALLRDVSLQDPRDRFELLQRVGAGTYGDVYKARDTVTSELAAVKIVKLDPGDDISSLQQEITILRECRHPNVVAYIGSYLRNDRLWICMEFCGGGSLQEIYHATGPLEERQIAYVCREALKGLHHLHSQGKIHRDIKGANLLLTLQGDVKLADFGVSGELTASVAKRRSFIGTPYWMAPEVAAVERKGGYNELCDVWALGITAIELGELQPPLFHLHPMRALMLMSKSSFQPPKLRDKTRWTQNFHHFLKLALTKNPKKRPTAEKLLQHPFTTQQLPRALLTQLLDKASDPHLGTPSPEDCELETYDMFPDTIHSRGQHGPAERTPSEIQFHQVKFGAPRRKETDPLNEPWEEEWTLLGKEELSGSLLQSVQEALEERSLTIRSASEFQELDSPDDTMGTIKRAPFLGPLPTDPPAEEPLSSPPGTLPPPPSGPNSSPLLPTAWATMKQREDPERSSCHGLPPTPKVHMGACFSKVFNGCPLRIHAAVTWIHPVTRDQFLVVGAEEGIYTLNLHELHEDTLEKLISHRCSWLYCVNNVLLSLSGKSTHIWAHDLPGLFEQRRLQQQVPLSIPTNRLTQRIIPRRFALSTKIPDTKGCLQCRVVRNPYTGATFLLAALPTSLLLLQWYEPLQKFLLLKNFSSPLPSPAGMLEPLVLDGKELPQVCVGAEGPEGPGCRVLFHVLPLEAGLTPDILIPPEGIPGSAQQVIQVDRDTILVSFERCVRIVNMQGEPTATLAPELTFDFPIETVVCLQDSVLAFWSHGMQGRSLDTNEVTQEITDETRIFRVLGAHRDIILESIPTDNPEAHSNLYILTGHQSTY
Mitogen-activated protein kinase kinase kinase 19 (Homo sapiens), sequence (Q56UN5 whole entry): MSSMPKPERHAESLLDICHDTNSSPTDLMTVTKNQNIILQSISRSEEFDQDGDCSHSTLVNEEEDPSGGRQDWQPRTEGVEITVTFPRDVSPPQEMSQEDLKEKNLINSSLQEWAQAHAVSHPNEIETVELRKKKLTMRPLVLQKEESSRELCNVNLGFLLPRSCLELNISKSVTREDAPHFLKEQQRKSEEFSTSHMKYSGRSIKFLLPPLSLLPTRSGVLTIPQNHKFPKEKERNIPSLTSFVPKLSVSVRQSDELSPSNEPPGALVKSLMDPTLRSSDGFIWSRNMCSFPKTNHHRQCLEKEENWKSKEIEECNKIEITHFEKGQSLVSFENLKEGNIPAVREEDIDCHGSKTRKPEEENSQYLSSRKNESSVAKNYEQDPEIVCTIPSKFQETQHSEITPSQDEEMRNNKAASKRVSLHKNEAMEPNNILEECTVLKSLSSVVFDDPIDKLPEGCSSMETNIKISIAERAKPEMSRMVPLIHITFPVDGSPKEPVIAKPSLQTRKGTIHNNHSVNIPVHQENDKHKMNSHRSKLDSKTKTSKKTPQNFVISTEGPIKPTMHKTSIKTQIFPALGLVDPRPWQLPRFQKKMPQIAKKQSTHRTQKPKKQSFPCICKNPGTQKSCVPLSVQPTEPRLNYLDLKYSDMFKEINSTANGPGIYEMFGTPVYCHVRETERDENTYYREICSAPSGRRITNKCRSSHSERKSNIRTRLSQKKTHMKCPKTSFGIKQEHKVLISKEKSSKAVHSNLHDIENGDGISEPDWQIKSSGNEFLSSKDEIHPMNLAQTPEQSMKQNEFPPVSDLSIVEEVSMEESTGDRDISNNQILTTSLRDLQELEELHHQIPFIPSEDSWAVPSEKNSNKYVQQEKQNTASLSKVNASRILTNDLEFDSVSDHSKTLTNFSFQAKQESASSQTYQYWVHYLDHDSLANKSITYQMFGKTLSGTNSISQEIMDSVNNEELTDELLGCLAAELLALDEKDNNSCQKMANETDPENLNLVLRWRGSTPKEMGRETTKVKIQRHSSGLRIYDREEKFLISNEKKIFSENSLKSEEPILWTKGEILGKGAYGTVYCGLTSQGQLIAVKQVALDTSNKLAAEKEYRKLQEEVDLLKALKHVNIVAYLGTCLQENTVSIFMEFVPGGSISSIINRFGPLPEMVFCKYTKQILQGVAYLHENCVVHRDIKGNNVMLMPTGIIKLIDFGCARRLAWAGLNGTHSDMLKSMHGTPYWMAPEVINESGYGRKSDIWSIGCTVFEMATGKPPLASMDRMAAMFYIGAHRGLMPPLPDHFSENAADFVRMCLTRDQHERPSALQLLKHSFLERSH
Cyclin-C/Cyclin-dependent kinase 19, sequence (Q9BWU1 whole entry): as the sequence (Q9BWU1 whole entry) above
Cyclin-C/Cyclin-dependent kinase 19, sequence (P24863 whole entry, further chain): as the sequence (P24863 whole entry, further chain) above
Cyclin-dependent kinase 8, sequence (P49336 whole entry): as the sequence (P49336 whole entry) above
Cyclin-dependent kinase 8/Cyclin-C, sequence (Q8R3L8 whole entry): as the sequence (P49336 whole entry) above, with Q82L, D366E, N372T, S394G, T396A counted along it
Cyclin-dependent kinase 8/Cyclin-C, sequence (Q62447 whole entry, further chain): as the sequence (P24863 whole entry, further chain) above, with A112T, M171V counted along it

`CCN1CCN(Cc2ccc(NC(=O)N[C@@H]3CCN(c4ccnc(NC)n4)C3)cc2C(F)(F)F)CC1`: in [1], the inhibition was determined as 74%. The IC50 in [2] is greater than 10 µM.

For `CN(C)[C@H]1C[C@@]23CC[C@@]4(O2)C(=CC[C@]2(C)[C@@H](c5ccc6ccncc6c5)CC[C@H]24)C=C3[C@@H](O)[C@@H]1O`, the 50% growth inhibitory concentration (GI50) in assay [3] is greater than 1000 nM; in assay [4], 5 nM; in assay [6], 7 nM; in assay [8] it was 1 nM; in assay [11], 4 nM; in assay [12], 9 nM. Besides, the GI50 came out at 6 nM in [13], 360 nM in assay [14] and 3 nM in assay [15]. The IC50 in [5] stood at 220 nM; in [9] it was 250 nM; in assay [10] it was 10 nM. In addition, in assay [7], the inhibition in vivo at 0.16 mg/kg was 70%.

With `CC1CCc2nc(N)c(C#N)c(-c3cccnc3)c2C1` (stereo unspecified), the IC50 came out at 30 µM in assay [16] and 500 nM in assay [18]. The EC50 in assay [17] came to 1400 nM.

As for `CN1CCN(C(=O)c2ccc3cc(CCNc4ncnc5ccc(C#N)cc45)ccc3c2)CC1`, the inhibition in assay [19] turned out to be 59%; in [20], 69%.

Consider `Cc1c(Br)c(Br)c2c3c1nc(N1CCNCC1)n3CCC2` [SEL-120 FREE BASE], for which the GI50 in assay [21], in assay [22], in [23], in assay [26], in [27] and in assay [28] was less than 1000 nM throughout. The GI50 in [29] and in assay [30] was less than 1000 nM each time. The IC50 came out at 10 nM in assay [24] and 4 nM in assay [25].

Turning to `N#Cc1ccc2ncnc(NCCc3ccccc3)c2c1`, the IC50 in [31] is 280 nM.
